{
  "source": "patent US20120083473A1",
  "about": "“TREATMENT OF CONDITIONS BY TOLL-LIKE RECEPTOR MODULATORS” (priority 2010, published 2012)",
  "key": {"NF-κB and STATs": {"tested_on": "NF-κB and STATs", "assay": "NF-κB and STATs activity in TMX-tolerant macrophages (Western blot)", "assay_type": "cell-based, mice", "protocol": "To investigate NF-κB and STATs activity upon TMX-mediated activation and tolerance, p65 and p50 NE-KB nuclear translocation and the levels of phospho-STATs proteins, respectively was analyzed. PEC treated 15 min with IFN-γ (500 U/mL) or with IL-10 (20 ng/ml) were used as positive controls for phospho-STAT1 and phospho-STAT3, respectively. In tolerance TMX 10 microM induces nuclear accumulation of p50 NF-kappaB and phosphorylation of STAT-3 (FIG. 6).\nCell Culture and treatments. Peritoneal exudate cells (PEC) were harvested from mice injected with 1 ml of 3% (w/v) thioglycollate medium (Difco, Detroit, Mich.) 4 days prior to isolation. PECs were incubated in RPMI 1640 medium, containing 10% fetal bovine serum, 2 mM glutamine and 100 U/ml of penicillin-streptomycin. The concentration for the different treatments were as follows: LPS (100 ng/ml) (Lipopolysaccharide from Salmonella Abortus Equi S-form, Alexis), CpG (1 μg/ml), Pam3CSK (2 μg/ml), Poly I:C (10 μg/ml), Loxorubine (100 μM), flagellin (100 ng/ml) IL-1β (20 ng/ml), TNF (20 ng/ml), IL-10 (20 ng/ml) (Peprotech), IFNγ (200 U/ml) (Peprotech). To induce TMX tolerance, cells were incubated in the presence of TMX (10 μM or 1 μM) for 20 hrs, washed and maintained in RPMI medium for 2 hrs and then re-challenged with TMX (10 μM) for 4 hrs. To induce TMX-tolerization (T/M) cells were treated with TMX for 20 hrs, washed and then maintained in medium for additional 6 hours, without TMX re-challenge. To induce M1-activation, cells were incubated in medium for 20 hrs, washed, left in medium for 2 hrs and finally stimulated with TMX (10 μM) for 4 hrs. Control cells (M/M) were cultured in medium for the entire period of the experiment. For gene expression analysis, total RNA was extracted from TMX treated and untreated cells with trizol (Invitrogen), according to the manufacturer's instructions. […]\nWestern blot analysis. For the NF-κB proteins, nuclear and cytosolic extracts were analyzed by SDS/PAGE (10% acrylamide) as described. […] Then, optical density was determined by “Quantity One” software."}, "Stability of the API": {"assay": "Stability of the API", "assay_type": "physicochemical", "details": "for stability of powder: preliminary", "protocol": "Compound 2 powder underwent preliminary stability testing at 25° C. for 6 months and 40° C. for three months. […] Aqueous solutions of Compound 2 (2 mg/ml) are stable up to 4 weeks at 37° C."}, "[1]": {"tested_on": "Bleomycin-induced fibrosis in C57BU6 mice", "assay": "Bleomycin-induced lung fibrosis in mice", "assay_type": "in vivo", "details": "500 nmol/animal s.c. daily; day 7 and day 21; ELISA", "protocol": "The efficacy of Compound 2 on mouse models of idiopathic lung fibrosis was studied as follows. Lung fibrosis was induced in 6-8 week old female C57BU6 mice. 0.8 U/kg of bleomycin (Hospira, Inc., Lake Forest, Ill.) was administered by intratracheal (i.t.) instillation on day 0. Bleomycin treated C57BU6 mice were divided into four groups (n 7 per group). Groups 2 and 4 were subcutaneously treated with Compound 2 at daily dose of 500 nmol/animal. Groups 1 and 3 were treated with saline control. Groups 1 and 2 were sacrificed on day 7 and groups 3 and 4 were sacrificed on day 21.\nMeasurements: Lung inflammation and fibrosis were evaluated by the following parameters: 1) cell infiltration to bronchial alveolar lavage (BAL); BAL were collected at the time of sacrifice and cell number was counted by hematocytometer. The infiltrated cells were differentiated by Wright-Giemsa staining. 2) BAL cytokines (IL-6, and IL-1b) by ELISA). 3) Lung histology by H&E staining and Sirius red staining (fibrosis). Histological samples were evaluated blindly."}},
  "data": [
    {"smiles": "COCCOc1nc(N)c2nc(O)n(Cc3ccc(C(=O)NCCOCCOCCOCCOCCOCCOCCn4cc(CCC(=O)O)nn4)cc3)c2n1", "note": "[Compound 2]", "values": [
      {"measurement": "activation of STAT-6", "setting": "NF-κB and STATs; any condition", "result": "No detectable activation"},
      {"measurement": "nuclear accumulation of p50 NF-kappaB", "setting": "NF-κB and STATs; in tolerance, TMX 10 microM", "result": "induces"},
      {"measurement": "phosphorylation of STAT-3", "setting": "NF-κB and STATs; in tolerance, TMX 10 microM", "result": "induces"},
      {"measurement": "stability of powder", "setting": "Stability of the API; 25° C. for 6 months", "result": "no degradation or impurity profile changes"},
      {"measurement": "stability of powder", "setting": "Stability of the API; 40° C. for three months", "result": "no degradation or impurity profile changes"},
      {"measurement": "time aqueous solutions are stable", "setting": "Stability of the API; aqueous solutions 2 mg/ml, 37° C.", "result": "up to 4 weeks"},
      {"measurement": "levels of IL-6 and IL-1b cytokines in BAL", "setting": "[1]", "result": "under the detection levels of ELISA"}
    ]}
  ]
}
